Tests used:
Details in all cases: miR-155 inhibitor 100 nM, 24 h, vs scrambled miRNA
miR-155 [1] = test: miR-155 gene expression by RT-qPCR in Panc02 cells; assay type: cell-based, mouse
Procedure: (§1) MiR-155 is known to be overexpressed in different cancers, including PC^21, 23. The inventors first assessed whether apigenin could modulate the expression of miR-155 in PC cells. Murine PC cell lines Panc02 and UN-KC-6141 as well as the human PC cell line MiaPaCa-2 were treated with API (40 μM) or DMSO vehicle for 24 h and the expression of miR-155 was examined using RT-qPCR assay. […] Since API is known to inhibit the growth of cancer cells, including PC cells^39-43, 47-50, the same PC cell lines were treated with API (40 μM) or DMSO (vehicle) for 24 h and examined cell viability using MTT assay. […] Moreover, Panc02 and UN-KC-6141 cells were then treated with API at a dose dependent concentration (10, 20, 30, 40, 50 μM) and detected apoptosis using flow cytometry (Annexin V and PI).
(§2) miR-155 is implicated in the development of pancreatic tumors from pancreatic intraepithelial neoplasia (PanIN) lesions, and is overexpressed in PC^23. The inventors examined whether the depletion of miR-155 modulated PC viability. Murine and human PC cell lines were transfected with miR-155 inhibitor (i.e., MMU-MIR-155-5P/HSA-MIR-155-5P) and scrambled miRNA at a concentration of 100 nM for 24 h and cell viability determined using an MTT assay. The expression of miR-155 was examined using an RT-qPCR assay as well. […]

miR-155 [2] = test: miR-155 gene expression by RT-qPCR in UN-KC-6141 cells; assay type: cell-based, mouse
Procedure: as §1, §2

Panc02 cells = test: MTT cell viability assay, Panc02; assay type: cell-based, mouse
Procedure: (§3) The methyl thiazol tetrazolium (MTT) assay was performed as described previously^58. Briefly, MiaPaCa-2, Panc02 and UN-KC-6141 cells were seeded in 96-well plates at a density of 3000 cells/well and allowed to attach overnight. PC cells were then treated with API (40 μM) or DMSO (1%) as vehicle control for 24 h at 37° C. in 5% CO2 incubator. After 24 h, media was replaced with 20 μL of MTT (1 mg/mL) (Sigma-Aldrich) and incubated for 3 h at 37° C. in 5% CO2. MTT was replaced with DMSO, and absorbance was read at 570 nm.
(§4) MiaPaCa-2, Panc02 and UN-KC-6141 cells (2×10^5) were grown in 2 mL of growth medium in a 6-well tissue culture plate for 18-24 h until 60-80% confluency. The following solutions were prepared: Solution A) For each transfection, diluted 1 μL of miRNA-155 inhibitors (1 μM) (Table 2) or scrambled negative control miRNA (1 μM) (Qiagen, Germantown, MD, USA) into 50 μL Opti-MEM Transfection Medium (Invitrogen, Waltham, MA, USA). Solution B) For each transfection, diluted 3 μL of Hi-Perfect Transfection Reagent into 50 μL Opti-MEM Transfection Medium. Solution A was added directly to Solution B, mixed gently and the mixture incubated for 10-15 min at room temperature. […]

UN-KC-6141 cells = test: MTT cell viability assay, UN-KC-6141; assay type: cell-based, mouse
Procedure: as §3, §4

miR-155 [3] = test: miR-155 gene expression by RT-qPCR in MiaPaCa-2 cells; assay type: cell-based, human
Procedure: as §1, §2

MiaPaCa-2 cells = test: MTT cell viability assay, MiaPaCa-2; assay type: cell-based, human
Procedure: as §3, §4

Substance	miR-155 gene expression (miR-155 [1])	miR-155 gene expression (miR-155 [2])	cell viability (MTT) (Panc02 cells)	cell viability (MTT) (UN-KC-6141 cells)	miR-155 gene expression (miR-155 [3])	cell viability (MTT) (MiaPaCa-2 cells)
MMU-MIR-155-5P: Qiagen miRCURY LNA miRNA inhibitor (mouse), sequence 5′-3′ CCCCTATCACAATTACCATT, SEQ ID NO: 1 (CCCCTATCACAATTAGCATT; LNA-modified commercial inhibitor, pattern not given here; listed 3' to 5'; listed as Mus musculus) [reference compound]	significantly depleted	significantly depleted	suppressed	suppressed	–	–
HSA-MIR-155-5P: Qiagen miRCURY LNA miRNA inhibitor (human), sequence 5′-3′ CCTATCACGATTAGCATT, SEQ ID NO: 2 (LNA-modified commercial inhibitor, pattern not given here; listed 3' to 5'; listed as Homo sapiens) [reference compound]	–	–	–	–	significantly depleted	suppressed
